# Test results taken from patent publication US20190060330A1, “APPLICATION OF 4-HYDROXY SALICYLANILIDE IN PREPARATION OF ANTI-MYELOMA OR ANTI-LYMPHOMA DRUGS” (priority 2016, published 2019).
# “And” between values parts separate entries of the source, which are not always exact repeats. Equal entries are not always repeated.
# Columns and labels:
# OCI-MY5 cells = assay: CCK8 cytotoxicity, OCI-MY5 multiple myeloma cells; assay type: cell-based; conditions: Homo sapiens, 72 h
# Method: (§1) (1) Cell lines: human multiple myeloma cells (H929 cells, OPM2 cells, U266 cells, OCI-MY5 cells, RPMI 8266 cells) (from ATCC of USA. The cells were passaged and preserved in the applicant's laboratory), were cultured in a 1640 culture medium (containing 10% fetus bovine serum).
# (§2) The cells were cultured in 1640 medium (containing 10% fetal bovine serum, pH 7.2) supplemented with 2 mmol/L glutamine. The cells were cultured in a cell culture incubator at 37° C., 5% CO2.
# (§3) A single-cell suspension of human multiple myeloma cells (H929 cells, OPM2 cells, U266 cells, OCI-MY5 cells, RPMI 8266 cells) was taken for cell counting, and the cell concentration was adjusted to 2×10^5 cells/mL. 95 μL of the above cell suspension was added into each well of a 96-well culture plate, and then 5 μL of the drug prepared with the medium was added at different concentrations, while the same volume of culture medium was added in the control group. Three parallel wells were set in each group. The plate was subjected to continuous culture for 72 h. 2 hours before the end of the culture, 10 μL of CCK8 reagent was added into each well, and the plate was continued to culture in a CO2 incubator. After 2 hours, the OD value of each well at 450 nm was detected by an automatic microplate reader. […]
# U266 cells = assay: CCK8 cytotoxicity, U266 multiple myeloma cells; assay type: cell-based; conditions: Homo sapiens, U-266, 72 h
# Method: as §1, §2, §3
# U2932 cells = assay: CCK8 cytotoxicity, U2932 lymphoma cells; assay type: cell-based; conditions: Homo sapiens, 72 h
# Method: (§4) A single-cell suspension of human multiple myeloma cells (H929 cells, OPM2 cells, U266 cells, OCI-MY5 cells, RPMI 8266 cells) was taken for cell counting, and the cell concentration was adjusted to 2×10^5 cells/mL. 95 μL of the above cell suspension was added into each well of a 96-well culture plate, and then 5 μL of the drug prepared with the medium was added at different concentrations, while the same volume of culture medium was added in the control group. Three parallel wells were set in each group. The plate was subjected to continuous culture for 72 h. 2 hours before the end of the culture, 10 μL of CCK8 reagent was added into each well, and the plate was continued to culture in a CO2 incubator. After 2 hours, the OD value of each well at 450 nm was detected by an automatic microplate reader. Cell viability and inhibition rate were calculated: cell viability (%)=(OD mean of experimental well/OD mean of control well)×100%. Cell inhibition rate (%)=100%−cell viability (%). The fitting function was used to determine the IC50 of the drug concentration when the cell growth was inhibited by 50%. The experiment was in triplicate.
# (§5) Cell lines: human lymphoma cells (SUDHL-4 cells, OCI-LY1 cells, OCI-LY8 cells, DB cells, NU-DUL-1 cells, U2932 cells, TMD8 cells)(from ATCC. USA. The cells were passaged and preserved in the applicant's laboratory). IMDM (Gibco Co., USA). […]
# OCI-LY8 cells [1] = assay: CCK8 cytotoxicity, OCI-LY8 lymphoma cells; assay type: cell-based; conditions: Homo sapiens, 72 h
# Method: as §4, §5
# OCI-LY8 cells [2] = assay: Animal experiment against lymphoma: subcutaneous OCI-LY8 tumors in nude mice; assay type: in vivo, BALB/C nude mice; conditions: 60 mg/kg every other day, caudal vein, 18 days
# Method: (1) Cell lines: human lymphoma cells (OCI-LY8 cells) (from ATCC, USA. The cells were passaged and preserved in the applicant's laboratory) were cultured in IMDM (containing 10% fetus bovine serum).
# (2) Experimental animals: referring to Example 2.
# (§6) The IMDM containing 3×10^6 OCI-LY8 cells was injected subcutaneously into the right axilla of the nude mice, and when the tumors grew to a measurable size, the mice were randomly assigned into the control group and the administration group. The nude mice in the administration group were injected through caudal vein with 4-hydroxy salicylanilide at 60 mg/kg ever other day. The nude mice in the control group were injected with the same volume of solvent (200 μL, 5% DMSO+4% castor oil+91% normal saline). The tumor sizes were measured every two days (measuring the length and width of the tumor, tumor volume=4π/3×(width/2)^2×(length/2)). The mice were sacrificed after a 18-day administration and the tumors were taken for taking photos.
# OCI-LY1 cells = assay: CCK8 cytotoxicity, OCI-LY1 lymphoma cells; assay type: cell-based; conditions: Homo sapiens, 72 h
# Method: as §4, §5
# RPMI 8266 cells = assay: CCK8 cytotoxicity, RPMI 8266 multiple myeloma cells; assay type: cell-based; conditions: Homo sapiens, RPMI8266, 72 h
# Method: as §1, §2, §3
# TMD8 cells = assay: CCK8 cytotoxicity, TMD8 lymphoma cells; assay type: cell-based; conditions: Homo sapiens, 72 h
# Method: as §4, §5
# H929 cells [3] = assay: CCK8 cytotoxicity, H929 multiple myeloma cells; assay type: cell-based; conditions: Homo sapiens, NCI-H929, 72 h
# Method: as §1, §2, §3
# OPM2 cells = assay: CCK8 cytotoxicity, OPM2 multiple myeloma cells; assay type: cell-based; conditions: Homo sapiens, OPM-2, 72 h
# Method: as §1, §2, §3
# NU-DUL-1 cells = assay: CCK8 cytotoxicity, NU-DUL-1 lymphoma cells; assay type: cell-based; conditions: Homo sapiens, 72 h
# Method: as §4, §5
# [4] = molecular target: T1, Ribonucleotide reductase (RR) (Homo sapiens, UniProt P31350); conditions: shown in studies; cited from earlier work
# T1 sequence (P31350 1-389): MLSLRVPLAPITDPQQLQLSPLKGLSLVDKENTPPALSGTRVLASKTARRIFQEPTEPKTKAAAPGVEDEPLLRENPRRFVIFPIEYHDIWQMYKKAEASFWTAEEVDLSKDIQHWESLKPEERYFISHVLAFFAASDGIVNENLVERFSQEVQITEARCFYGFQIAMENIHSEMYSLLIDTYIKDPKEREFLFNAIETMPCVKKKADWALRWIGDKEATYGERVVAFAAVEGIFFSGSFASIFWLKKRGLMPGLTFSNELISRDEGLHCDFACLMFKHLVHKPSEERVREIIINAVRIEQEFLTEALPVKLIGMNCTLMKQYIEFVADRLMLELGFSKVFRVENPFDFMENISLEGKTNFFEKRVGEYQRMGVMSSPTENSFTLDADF
# H929 cells [5] = assay: Animal experiment for multiple myeloma: subcutaneous H929 tumors in nude mice; assay type: in vivo, BALB/C nude mice; conditions: 50 mg/kg per day, caudal vein
# Method: (1) Cell line: human multiple myeloma cells (H929 cells) (from ATCC, USA. The cells were passaged and preserved in the applicant's laboratory), were cultured in a 1640 culture medium (containing 10% fetus bovine serum).
# (2) Experimental animals: Male BALB/C nude mice (4-6 week old, purchased from Shanghai Sippr-BK laboratory animal Co. Ltd), were housed in an SPF condition (Center Laborotory Animal Room, Shanghai Tenth People's Hospital).
# The cells were cultured in 1640 a 1640 culture medium (containing 10% fetus bovine serum, pH 7.2) supplemented with 2 mmol/L glutamine. The resultant was cultured in a incubator at 37° C. under 5% CO2 environment.
# as §6, with “1640 medium” for “IMDM”, “3.5×10^6 H929” for “3×10^6 OCI-LY8”, “50” for “60”, “and 100 mg/kg per” for “ever other”, “volume=0.5×(width)^2×length).” for “volume=4π/3×(width/2)^2×(length/2)).”, “22-day” for “18-day”
smiles,measurement,setting,value
O=C(Nc1ccc(O)cc1)c1ccccc1O,IC50,OCI-MY5 cells,211 µM
same,IC50,U266 cells,271 µM
same,IC50,U2932 cells,156 µM
same,IC50,OCI-LY8 cells [1],76 µM
same,Inhibition of growth of lymphoma in nude mice (in words),OCI-LY8 cells [2],effectively inhibit the growth of lymphoma
same,IC50,OCI-LY1 cells,117 µM
same,IC50,RPMI 8266 cells,170 µM
same,IC50,TMD8 cells,164 µM
same,IC50,H929 cells [3],179 µM
same,IC50,OPM2 cells,84 µM
same,IC50,NU-DUL-1 cells,188 µM
same,Inhibition of Ribonucleotide reductase (in words),[4],inhibitor
same,"Tumor volume, individual mice No. 1-4",H929 cells [5]; day 0,0.08 cm^3 (2×) and 0.11 cm^3 and 0.10 cm^3
same,"Tumor volume, mean",H929 cells [5]; day 0,0.10 cm^3
same,"Tumor volume, individual mice No. 1-4",H929 cells [5]; day 2,0.15 cm^3 (2×) and 0.17 cm^3 and 0.11 cm^3
same,"Tumor volume, mean",H929 cells [5]; day 2,0.15 cm^3
same,"Tumor volume, individual mice No. 1-4",H929 cells [5]; day 4,0.24 cm^3 and 0.25 cm^3 and 0.22 cm^3 and 0.14 cm^3
same,"Tumor volume, mean",H929 cells [5]; day 4,0.21 cm^3
same,"Tumor volume, individual mice No. 1-4",H929 cells [5]; day 6,0.38 cm^3 (2×) and 0.30 cm^3 and 0.27 cm^3
same,"Tumor volume, mean",H929 cells [5]; day 6,0.33 cm^3
same,"Tumor volume, individual mice No. 1-4",H929 cells [5]; day 8,0.58 cm^3 and 0.50 cm^3 and 0.37 cm^3 (2×)
same,"Tumor volume, mean",H929 cells [5]; day 8,0.45 cm^3
same,"Tumor volume, individual mice No. 1-4",H929 cells [5]; day 10,0.77 cm^3 and 0.63 cm^3 and 0.64 cm^3 and 0.49 cm^3
same,"Tumor volume, mean",H929 cells [5]; day 10,0.63 cm^3
same,"Tumor volume, individual mice No. 1-4",H929 cells [5]; day 12,0.99 cm^3 and 0.78 cm^3 and 0.80 cm^3 and 0.74 cm^3
same,"Tumor volume, mean",H929 cells [5]; day 12,0.83 cm^3
same,"Tumor volume, individual mice No. 1-4",H929 cells [5]; day 14,1.20 cm^3 and 1.15 cm^3 and 0.97 cm^3 and 1.03 cm^3
same,"Tumor volume, mean",H929 cells [5]; day 14,1.09 cm^3
same,"Tumor volume, individual mice No. 1-4",H929 cells [5]; day 16,1.53 cm^3 and 1.47 cm^3 and 1.31 cm^3 and 1.35 cm^3
same,"Tumor volume, mean",H929 cells [5]; day 16,1.41 cm^3
same,"Tumor volume, individual mice No. 1-4",H929 cells [5]; day 18,2.08 cm^3 and 1.81 cm^3 and 1.54 cm^3 and 1.71 cm^3
